Laboratory results reported in ChEMBL document CHEMBL4376829, “Discovery and biological evaluation of vinylsulfonamide derivatives as highly potent, covalent TEAD autopalmitoylation inhibitors” (Eur J Med Chem, 2019).
Activity calls are given as the source filed them. The calls are words filed in the database; no cut-off is given here.

Experiments:
[1] = molecular target: T1, Transcriptional enhancer factor TEF-3 (Homo sapiens, UniProt Q15561); experiment: (§1) Inhibition of N-terminal His6 tagged human TEAD4-YBD (217 to 434 residues) expressed in Escherichia coli C43 (DE3) cells assessed as reduction in autopalmitoylation at 200 nM preincubated for 2 hrs followed by palmitoyl alkyne-coenzyme A addition and measured after 30 mins immunoblot analysis relative to control
[2] = molecular target: T1, Transcriptional enhancer factor TEF-3; experiment: as §1, with “800” for “200”, “mins by” for “mins”
[3] = molecular target: T1, Transcriptional enhancer factor TEF-3; experiment: Binding affinity to N-terminal His6 tagged human TEAD4-YBD (217 to 434 residues) expressed in Escherichia coli C43 (DE3) cells by SPR analysis
[4] = molecular target: T1, Transcriptional enhancer factor TEF-3; experiment: Binding affinity to N-terminal His6 tagged human TEAD4 (217 to 434 residues) expressed in Escherichia coli C43 (DE3) cells incubated for 30 mins by isothermal Titration Calorimetry
[5] = molecular target: T1, Transcriptional enhancer factor TEF-3; experiment: Inhibition of N-terminal His6-tagged human TEAD4 YAP binding domain (217 to 434 residues) expressed in Escherichia coli C43 (DE3) cells assessed reduction in autopalmitoylation preincubated for 2 hrs followed by palmitoyl alkyne coenzyme A addition and measured after 30 mins by immunoblot analysis
[6] = molecular target: T1, Transcriptional enhancer factor TEF-3; experiment: Binding affinity to N-terminal His6 tagged human TEAD4 (217 to 434 residues) expressed in Escherichia coli C43 (DE3) cells at 200 uM by STD NMR spectral analysis
[7] = molecular target: T1, Transcriptional enhancer factor TEF-3; experiment: Binding affinity to N-terminal His6 tagged human TEAD4 (217 to 434 residues) expressed in Escherichia coli C43 (DE3) cells at 200 uM by CPMG NMR spectral analysis
[8] = molecular target: T1, Transcriptional enhancer factor TEF-3; experiment: Binding affinity to TEAD4 (unknown origin) assessed as change in melting temperature at protein to compound ratio of 1:10 by SYPRO orange dye based thermal shift assay
[9] = molecular target: T1, Transcriptional enhancer factor TEF-3; experiment: Competitive binding affinity to N-terminal His6 tagged human TEAD4 (217 to 434 residues) expressed in Escherichia coli C43 (DE3) cells at 200 uM in presence of palmitoyl CoA by CPMG NMR spectral analysis
[10] = molecular target: T1, Transcriptional enhancer factor TEF-3; experiment: Binding affinity to TEAD4 (unknown origin) assessed as induction of protein folding by SYPRO-dye based thermal shift assay
[11] = molecular target: T1, Transcriptional enhancer factor TEF-3; experiment: Binding affinity to TEAD4 (unknown origin) assessed as change in melting temperature at protein to compound ratio of 1:40 by SYPRO orange dye based thermal shift assay
[12] = molecular target: T1, Transcriptional enhancer factor TEF-3; experiment: Binding affinity to TEAD4 (unknown origin) assessed as change in melting temperature by fluorescence based thermal shift assay
[13] = molecular target: T1, Transcriptional enhancer factor TEF-3; experiment: Inhibition of N-terminal His6 tagged human TEAD4-YBD (217 to 434 residues) expressed in Escherichia coli C43 (DE3) cells assessed as reduction in autopalmitoylation at 50 uM preincubated for 2 hrs followed by palmitoyl alkyne-coenzyme A addition and measured after 30 mins by immunoblot analysis

T1 sequence (Q15561 whole entry, the tested form may be a part): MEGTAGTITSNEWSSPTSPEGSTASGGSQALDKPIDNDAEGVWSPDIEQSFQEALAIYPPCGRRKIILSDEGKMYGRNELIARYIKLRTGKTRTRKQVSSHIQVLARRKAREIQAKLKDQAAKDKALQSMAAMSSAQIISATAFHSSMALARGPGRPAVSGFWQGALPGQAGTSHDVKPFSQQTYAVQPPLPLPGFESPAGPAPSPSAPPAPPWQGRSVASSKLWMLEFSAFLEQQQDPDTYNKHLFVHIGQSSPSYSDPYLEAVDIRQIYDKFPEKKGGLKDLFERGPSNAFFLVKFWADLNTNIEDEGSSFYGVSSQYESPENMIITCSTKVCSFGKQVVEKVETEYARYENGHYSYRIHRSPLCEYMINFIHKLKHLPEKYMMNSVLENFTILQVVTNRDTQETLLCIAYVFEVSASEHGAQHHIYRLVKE

## C=CS(=O)(=O)Nc1ccc(Cc2ccc3ccccc3c2)c(O)c1
[1]
  inhibition: 44.3%
[2]
  inhibition: 92.1%

## C=CS(=O)(=O)Nc1ccc(OCc2ccccc2)cc1
[1]
  inhibition: 21%
[2]
  inhibition: 52.5%

## O=C(O)c1ccccc1Nc1cccc(C(F)(F)F)c1 [FLUFENAMIC ACID]
[3]
  Kd: 84 µM
[4]
  Kd: 73 µM
[5]
  IC50: 54 µM
  inhibition: Dose-dependent effect

## Cc1ccc(Oc2ccc(N)cc2)cc1
[6]
  Activity: Active
[3]
  Kd: 41 µM
[7]
  Activity: Active
[5]
  IC50: 32 µM
  inhibition: Dose-dependent effect
[8]
  ΔTm: 3.1 °C
[9]
  Activity: Active
[10]
  Activity: Dose-dependent effect
[11]
  ΔTm: 4.5 °C
[12]
  Activity: Dose-dependent effect

## C=CS(=O)(=O)Nc1ccc(Cc2ccc3ccc(O)cc3c2)cc1
[1]
  inhibition: 18.9%
[2]
  inhibition: 82.5%

## C=CS(=O)(=O)Nc1ccc(NC(=O)c2ccc3ccccc3c2)cc1
[1]
  inhibition: 15.6%
[2]
  inhibition: 35%

## C=CS(=O)(=O)Nc1ccc(Cc2ccc3ccccc3c2)c(OC2CCNCC2)c1
[1]
  inhibition: 1.2%
[2]
  inhibition: 6.5%
[13]
  inhibition: Active

## C=CS(=O)(=O)Nc1ccc2c(c1)CCN(C(=O)c1ccccc1)C2
[1]
  inhibition: 5.4%
[2]
  inhibition: 25.4%

## C=CS(=O)(=O)Nc1ccc(C(=O)Nc2ccc3c(c2)CCNC3)cc1
[1]
  inhibition: 0.3%
[2]
  inhibition: 10.1%

## C=CS(=O)(=O)Oc1ccc(Oc2ccccc2)cc1
[1]
  inhibition: 62.2%
[2]
  inhibition: 94.8%

## C=CS(=O)(=O)Nc1ccc(Cc2ccccc2)cc1
[1]
  inhibition: 59.2%
[2]
  inhibition: 92.5%

## C=CS(=O)(=O)Nc1ccccc1Oc1ccccc1
[1]
  inhibition: -4.1%
[2]
  inhibition: 25.2%

## C=CS(=O)(=O)Nc1ccc2ccccc2c1
[1]
  inhibition: 8.4%
[2]
  inhibition: 1.1%
